Values quoted from earlier work, collected in patent US20110159080A1, “COMPOSITION COMPRISING LIPOSOME-ENTRAPPED DOXORUBICIN AND METHODS OF ADMINISTRATION” (priority 2008, published 2011).

Columns and labels:
[1] = test system: platinum resistant advanced ovarian carcinoma; conditions: human, in vivo
[2] = test system: xenotransplant models of colon cancer; conditions: nude (athymic) mice
[3] = test system: persistent or recurrent epithelial ovarian cancer
[4] = test system: primary or secondary platinum-resistant ovarian cancer; conditions: bevacizumab 15 mg/kg every 21 days
[5] = test system: recurrent stage III or IV ovarian cancer

bevacizumab: recombinant humanized monoclonal IgG1 antibody that binds to and inhibits human vascular endothelial growth factor (VEGF)
cases of perforation [1]: no cases of perforation | effect on metastatic disease progression [2]: inhibition of metastatic disease progression | effect on microvascular growth [2]: reduction in microvascular growth | complete responses (number of subjects) ([3]; 62 eligible subjects): two | subjects surviving progression free for at least 6 months ([3]; 62 eligible subjects): 40.3% | subjects with clinical response ([3]; bevacizumab 15 mg/kg IV every 21 days, 62 eligible subjects): 21.0% | Grade 3 adverse events: GI (number) ([3]; in vivo): 3 | Grade 3 adverse events: coagulation (number) ([3]; in vivo): 1 | Grade 3 adverse events: constitutional (number) ([3]; in vivo): 1 | Grade 3 adverse events: dyspnea (number) ([3]; in vivo): 1 | Grade 3 adverse events: hematologic (number) ([3]; in vivo): 1 | Grade 3 adverse events: hepatic (number) ([3]; in vivo): 1 | Grade 3 adverse events: hypertension (number) ([3]; in vivo): 6 | Grade 3 adverse events: pain (number) ([3]; in vivo): 3 | Grade 3 adverse events: thromboembolism (number) ([3]; in vivo): 1 | Grade 4 adverse events: proteinuria (number) ([3]; in vivo): 1 | Grade 4 adverse events: pulmonary embolus (number) ([3]; in vivo): 1 | Grade 4 adverse events: vomiting and constipation (number) ([3]; in vivo): 1 | median PFS ([3]; in vivo): 4.7 months | median overall survival ([3]; in vivo): 17 months | median response duration ([3]; in vivo): 10 months | 6-month PFS rate [4]: 27% | response rate [4]: 16%

N.N.O=C([O-])C1(C(=O)[O-])CCC1.[Pt+2] [carboplatin]
response rate ([5]; DOXIL 30 mg/m^2 plus carboplatin AUC 5 or carboplatin alone AUC 5, every 4 weeks, p=0.02): 32% | estimated median PFS ([5]; every 4 weeks): 8 months | estimated median overall survival ([5]; every 4 weeks, p=0.02): 18 months

CC[C@@]1(O)C(=O)OCc2c1cc1n(c2=O)Cc2cc3c(CN(C)C)c(O)ccc3nc2-1 [topotecan]
toxicity profile (recurrent ovarian cancer; DOXIL 50 mg/m^2 every 4 weeks, topotecan 1.5 mg/m^2/day for 5 days every 3 weeks): significant myelosuppression and alopecia | median OS (recurrent ovarian cancer; subset with platinum-sensitive disease, p=0.008): 71.1 weeks | median PFS (recurrent ovarian cancer; subset with platinum-sensitive disease, p=0.037): 23.3 weeks
